Data reported in patent US20210322545A1 (priority 2016, published 2021).

System: cancer cell lines
Format: cell-based

Row | Substance | synergy with SMC using recombinant cytokines
1 | IFNα | recapitulated
2 | IFNγ | recapitulated
